Test results published in patent US20110081296A1, “SYSTEMS AND METHODS FOR IDENTIFICATION OF CILIOPATHY THERAPEUTICS” (RUTGERS, THE STATE UNIVERSITY OF NEW JERSEY, priority 2009, published 2011).

How the values were obtained:
Format in all cases: cell-based, Caenorhabditis elegans
my15 sperm = test: in vitro sperm crawling on glass slides after chemical activation, cil-1(my15) mutant; details: isolated my15 sperm
Method: (§1) Epifluorescence and Nomarski analyses were performed on a Zeiss Axioplan2 imaging system equipped with 10×, 63× (NA 1.4), 100× (NA 1.4) objectives and a Photometrics Cascade 512B CCD camera using Metamorph software. 3D deconvolution of Z-stacks of epifluorescent image were performed by AutoQuantX program (MediaCybernetics). Confocal images were collected using a 510 LSM META ZEISS. Optical sections were collected between 0.4-1.0 μm and projected as Z-series that were stored as TIFF files and manipulated using Adobe PhotoShopTM. Worms were anesthetized with 1 mM levamisole, mounted on agar pads and maintained at room temperature. For time-lapse microscopy of sperm motility, Nomarski images were taken every 15 seconds for up to 15 minutes. Neuronal images shown in figures are projected epifluorescent Z-stacks af[…] deconvolution except for FIGS. 2C and 2G, which are projected Z-stacks of confocal sections. For electron microscopy, sperm were prepared as known in the art, except that the samples were embedded in LX112 (Ladd Research Industries Inc., Burlington, Va.). To isolate spermatids, virgin L4 males were isolated for 2-3 days in 20 degrees and cut with a 25g needle on a glass slide in Sperm Media (SM) pH 7.9 with 10 mM Dextrose. For in vitro activation, 20 ug/ml of Pronase or 100 nM monensin (for in vitro sperm crawling experiments) was added to SM as described in [21]. […]

WT sperm = test: in vitro sperm crawling on glass slides after chemical activation, wild type; details: n=7
Method: as §1

WT spermatids = test: in vitro sperm activation of isolated male spermatids, wild type; details: of 1, 10, 100 nM tested
Method: (§2) To isolate spermatids, virgin L4 males were isolated for 2-3 days in 20 degrees and cut with a 25g needle on a glass slide in Sperm Media (SM) pH 7.9 with 10 mM Dextrose. For in vitro activation, 20 ug/ml of Pronase or 100 nM monensin (for in vitro sperm crawling experiments) was added to SM as described in [21]. For wortmannin treatment, a 100× wortmannin stock solution in DMSO was added to reach the final concentration of 100 nM into SM. During sperm activation, a round spermatid develops into a motile spermatozoon with a pseudopod (FIG. 16A). This process can be mimicked in vitro by chemical activators such as the ionophore monensin or Pronase. Within 15 min of Pronase application, the majority of WT male spermatids (63.4%, n=347) extend pseudopods (FIGS. 16B and 16B′), and the average length of spermatozoa is 8.13±1.11 μm (±standard deviation [SD], n=95) (FIG. 16B′). […] The diameter of my15 spermatids is also slightly smaller (6.22±0.54 μm, n=136) than WT (6.73±0.65 μm, n=110, p=8.08E-07). In vivo sperm activation defects were observed also in my15 hermaphrodites. […] Thus, cil-1 positively regulates sperm activation in vitro and in vivo. […] To this end, 1 nM, 10 nM, and 100 nM wortmannin, a pharmacological inhibitor of PI 3-kinases that produce PI(3,4,5)P3 from PI(4,5)P2 [27], were applied to WT and my15 spermatids.

my15 spermatids = test: in vitro sperm activation of isolated male spermatids, cil-1(my15) mutant; details: 100 nM
Method: as §2

SMILES | sperm motility (my15 sperm) | sperm crawl rate (WT sperm) [μm/s] | most effective concentration for in vitro activation (WT spermatids) [nM] | activation of male-derived sperm (my15 spermatids)
CC[C@@]1([C@@H]2O[C@@H]([C@H]3O[C@@](O)(CO)[C@H](C)C[C@@H]3C)C[C@@H]2C)CC[C@H]([C@]2(C)CC[C@]3(C[C@H](O)[C@@H](C)[C@@H]([C@@H](C)[C@@H](OC)[C@H](C)C(=O)O)O3)O2)O1 [monensin] | immotile | 0.33±0.04 |  | 
COC[C@H]1OC(=O)c2coc3c2[C@@]1(C)C1=C(C3=O)[C@@H]2CCC(=O)[C@@]2(C)C[C@H]1OC(C)=O [wortmannin] |  |  | 100 | not activated
